Reference: the kinase profiling compilation of Christmann-Franck et al. (2016)

How the values were obtained:
Assay in all cases: radiometric filter-binding kinase assay
MST4 (human) = MST4 (human) (UniProt Q9P289)
PIM2 (human) = PIM2 (human) (UniProt Q9P1W9)
PIM3 (human) = PIM3 (human) (UniProt Q86V86)
MAP2K6 (human) = MAP2K6 (human) (UniProt P52564)
BRSK1 (human) = BRSK1 (human) (UniProt Q8TDC3)
PRKACA (human) = PRKACA (human) (UniProt P17612)
[1] = system: PAK2 (human), Q13177 [T402E]
RPS6KA3 KD1 KD2 (human) = RPS6KA3 KD1 KD2 (human) (UniProt P51812)
MAP2K2 (human) = MAP2K2 (human) (UniProt P36507)
MELK (human) = MELK (human) (UniProt Q14680)
MELK (human), sequence (Q14680 whole entry, looked up): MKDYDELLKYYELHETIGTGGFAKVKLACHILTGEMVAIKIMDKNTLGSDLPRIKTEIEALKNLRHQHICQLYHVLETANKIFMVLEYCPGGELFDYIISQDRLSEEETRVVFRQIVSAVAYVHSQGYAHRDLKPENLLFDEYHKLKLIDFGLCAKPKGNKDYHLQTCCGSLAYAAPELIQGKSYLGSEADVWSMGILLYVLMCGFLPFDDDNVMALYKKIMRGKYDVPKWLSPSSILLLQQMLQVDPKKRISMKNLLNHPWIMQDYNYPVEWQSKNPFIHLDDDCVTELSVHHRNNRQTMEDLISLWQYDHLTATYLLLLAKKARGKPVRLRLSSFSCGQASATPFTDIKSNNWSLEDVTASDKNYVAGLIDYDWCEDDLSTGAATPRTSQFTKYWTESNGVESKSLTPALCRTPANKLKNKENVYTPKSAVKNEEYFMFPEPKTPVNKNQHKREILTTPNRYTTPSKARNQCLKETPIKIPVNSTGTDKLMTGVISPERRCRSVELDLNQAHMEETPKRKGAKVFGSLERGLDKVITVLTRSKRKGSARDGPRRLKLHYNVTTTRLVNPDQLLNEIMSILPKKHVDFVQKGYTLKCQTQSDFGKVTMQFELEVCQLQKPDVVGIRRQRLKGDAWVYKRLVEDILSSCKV

EEF2K (human) = EEF2K (human) (UniProt O00418)
CHEK1 (human) = CHEK1 (human) (UniProt O14757)
FLT1 (human) = FLT1 (human) (UniProt P17948)
MAPKAPK5 (human) = MAPKAPK5 (human) (UniProt Q8IW41)
MAPKAPK3 (human) = MAPKAPK3 (human) (UniProt Q16644)
SRPK1 (human) = SRPK1 (human) (UniProt Q96SB4)
INSRR (human) = INSRR (human) (UniProt P14616)
INSRR (human), sequence (P14616 whole entry, looked up): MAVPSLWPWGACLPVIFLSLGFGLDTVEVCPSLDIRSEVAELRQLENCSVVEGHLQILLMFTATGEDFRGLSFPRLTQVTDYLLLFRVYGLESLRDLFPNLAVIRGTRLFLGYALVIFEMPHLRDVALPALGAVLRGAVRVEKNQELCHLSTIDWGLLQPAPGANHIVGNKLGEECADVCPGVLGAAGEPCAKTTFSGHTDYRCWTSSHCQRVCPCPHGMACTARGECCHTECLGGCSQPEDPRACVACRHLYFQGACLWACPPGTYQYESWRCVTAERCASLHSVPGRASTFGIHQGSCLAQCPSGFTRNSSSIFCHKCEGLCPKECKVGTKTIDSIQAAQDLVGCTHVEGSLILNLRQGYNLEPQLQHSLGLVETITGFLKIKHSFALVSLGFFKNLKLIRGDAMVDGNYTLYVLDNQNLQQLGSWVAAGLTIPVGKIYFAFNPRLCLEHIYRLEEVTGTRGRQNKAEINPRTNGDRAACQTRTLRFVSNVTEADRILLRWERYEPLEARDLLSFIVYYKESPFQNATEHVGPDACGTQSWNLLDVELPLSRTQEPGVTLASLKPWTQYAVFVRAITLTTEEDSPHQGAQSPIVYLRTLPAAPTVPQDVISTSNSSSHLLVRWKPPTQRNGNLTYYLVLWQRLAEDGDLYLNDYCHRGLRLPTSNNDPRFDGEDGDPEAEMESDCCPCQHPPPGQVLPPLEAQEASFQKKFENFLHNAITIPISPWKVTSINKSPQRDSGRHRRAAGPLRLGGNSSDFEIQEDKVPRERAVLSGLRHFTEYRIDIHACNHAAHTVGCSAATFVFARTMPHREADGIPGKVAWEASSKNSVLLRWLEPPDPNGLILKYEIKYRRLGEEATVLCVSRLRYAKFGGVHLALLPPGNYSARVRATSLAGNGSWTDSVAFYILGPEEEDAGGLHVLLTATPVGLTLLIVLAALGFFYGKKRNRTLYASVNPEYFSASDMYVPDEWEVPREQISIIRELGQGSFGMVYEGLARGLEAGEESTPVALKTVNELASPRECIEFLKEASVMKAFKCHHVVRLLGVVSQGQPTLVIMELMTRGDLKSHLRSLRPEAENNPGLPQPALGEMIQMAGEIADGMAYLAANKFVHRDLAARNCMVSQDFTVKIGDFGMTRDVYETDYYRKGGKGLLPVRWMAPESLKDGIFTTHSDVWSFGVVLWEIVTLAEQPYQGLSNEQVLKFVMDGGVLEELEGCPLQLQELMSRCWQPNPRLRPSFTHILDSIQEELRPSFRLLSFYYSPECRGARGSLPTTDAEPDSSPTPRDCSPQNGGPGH

MINK1 (human) = MINK1 (human) (UniProt Q8N4C8)
MAPK12 (human) = MAPK12 (human) (UniProt P53778)
AURKA (human) = AURKA (human) (UniProt O14965)
MAPK10 (human) = MAPK10 (human) (UniProt P53779)
CSNK2A1 (human) = CSNK2A1 (human) (UniProt P68400)
CSNK2A1 (human), sequence (P68400 whole entry, looked up): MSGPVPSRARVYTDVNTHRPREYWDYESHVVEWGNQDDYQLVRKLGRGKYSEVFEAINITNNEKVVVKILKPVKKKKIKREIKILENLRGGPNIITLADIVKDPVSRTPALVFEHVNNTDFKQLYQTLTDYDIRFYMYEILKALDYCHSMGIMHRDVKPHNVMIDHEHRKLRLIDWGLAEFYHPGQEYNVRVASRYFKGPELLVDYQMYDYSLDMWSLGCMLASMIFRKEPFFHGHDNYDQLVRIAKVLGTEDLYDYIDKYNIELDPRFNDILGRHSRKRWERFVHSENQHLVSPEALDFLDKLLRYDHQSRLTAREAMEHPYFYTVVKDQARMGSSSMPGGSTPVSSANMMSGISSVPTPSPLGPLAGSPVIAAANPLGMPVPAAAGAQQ

ERBB4 (human) = ERBB4 (human) (UniProt Q15303)
ERBB4 (human), sequence (Q15303 whole entry, looked up): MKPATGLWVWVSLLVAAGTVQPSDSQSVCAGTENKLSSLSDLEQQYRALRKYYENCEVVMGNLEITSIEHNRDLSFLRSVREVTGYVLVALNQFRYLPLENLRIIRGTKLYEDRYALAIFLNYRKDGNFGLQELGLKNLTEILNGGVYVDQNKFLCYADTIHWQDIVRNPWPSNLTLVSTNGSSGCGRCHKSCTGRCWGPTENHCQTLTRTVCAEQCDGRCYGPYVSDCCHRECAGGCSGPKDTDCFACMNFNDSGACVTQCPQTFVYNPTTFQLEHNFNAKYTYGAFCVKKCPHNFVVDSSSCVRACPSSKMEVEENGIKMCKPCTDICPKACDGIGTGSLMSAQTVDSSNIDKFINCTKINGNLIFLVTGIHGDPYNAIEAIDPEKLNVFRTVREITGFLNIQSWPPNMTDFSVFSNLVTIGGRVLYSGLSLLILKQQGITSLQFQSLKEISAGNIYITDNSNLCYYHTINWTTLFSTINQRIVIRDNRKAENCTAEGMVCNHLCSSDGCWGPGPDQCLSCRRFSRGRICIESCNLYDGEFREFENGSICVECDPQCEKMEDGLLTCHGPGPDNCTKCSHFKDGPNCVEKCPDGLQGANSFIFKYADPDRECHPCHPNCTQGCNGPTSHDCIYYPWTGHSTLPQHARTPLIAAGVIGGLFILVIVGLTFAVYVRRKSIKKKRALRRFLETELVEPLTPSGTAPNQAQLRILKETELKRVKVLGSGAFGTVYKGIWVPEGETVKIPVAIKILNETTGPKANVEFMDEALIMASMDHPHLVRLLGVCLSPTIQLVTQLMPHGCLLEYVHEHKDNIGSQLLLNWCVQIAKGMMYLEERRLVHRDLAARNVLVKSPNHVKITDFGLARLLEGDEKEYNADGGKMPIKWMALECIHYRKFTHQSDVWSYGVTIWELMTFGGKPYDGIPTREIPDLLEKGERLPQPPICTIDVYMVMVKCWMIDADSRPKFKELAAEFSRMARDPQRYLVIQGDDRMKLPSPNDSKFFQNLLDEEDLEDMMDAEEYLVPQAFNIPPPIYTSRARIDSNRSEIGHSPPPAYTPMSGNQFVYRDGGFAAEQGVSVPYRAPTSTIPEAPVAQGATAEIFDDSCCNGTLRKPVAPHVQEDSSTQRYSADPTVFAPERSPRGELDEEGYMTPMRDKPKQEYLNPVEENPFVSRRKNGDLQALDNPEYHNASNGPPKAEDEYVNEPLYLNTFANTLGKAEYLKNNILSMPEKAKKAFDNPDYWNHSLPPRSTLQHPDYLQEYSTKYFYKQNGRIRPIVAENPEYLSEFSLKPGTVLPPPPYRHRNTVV

CDK2 CCNA2 (human) = CDK2 CCNA2 (human) (UniProt P20248+P24941)
AURKB (human) = AURKB (human) (UniProt Q96GD4)
GCK (human) = GCK (human) (UniProt Q12851)
[2] = system: SGK1 (human), O00141 [S422D]
MAPK15 (human) = MAPK15 (human) (UniProt Q8TD08)
EPHA2 (human) = EPHA2 (human) (UniProt P29317)
RIPK2 (human) = RIPK2 (human) (UniProt O43353)
PRKCA (human) = PRKCA (human) (UniProt P17252)
PHKG1 (human) = PHKG1 (human) (UniProt Q16816)
TAOK1 (human) = TAOK1 (human) (UniProt Q7L7X3)
BTK (human) = BTK (human) (UniProt Q06187)
DYRK2 (human) = DYRK2 (human) (UniProt Q92630)
FGFR1 (human) = FGFR1 (human) (UniProt P11362)
FGFR1 (human), sequence (P11362 whole entry, looked up): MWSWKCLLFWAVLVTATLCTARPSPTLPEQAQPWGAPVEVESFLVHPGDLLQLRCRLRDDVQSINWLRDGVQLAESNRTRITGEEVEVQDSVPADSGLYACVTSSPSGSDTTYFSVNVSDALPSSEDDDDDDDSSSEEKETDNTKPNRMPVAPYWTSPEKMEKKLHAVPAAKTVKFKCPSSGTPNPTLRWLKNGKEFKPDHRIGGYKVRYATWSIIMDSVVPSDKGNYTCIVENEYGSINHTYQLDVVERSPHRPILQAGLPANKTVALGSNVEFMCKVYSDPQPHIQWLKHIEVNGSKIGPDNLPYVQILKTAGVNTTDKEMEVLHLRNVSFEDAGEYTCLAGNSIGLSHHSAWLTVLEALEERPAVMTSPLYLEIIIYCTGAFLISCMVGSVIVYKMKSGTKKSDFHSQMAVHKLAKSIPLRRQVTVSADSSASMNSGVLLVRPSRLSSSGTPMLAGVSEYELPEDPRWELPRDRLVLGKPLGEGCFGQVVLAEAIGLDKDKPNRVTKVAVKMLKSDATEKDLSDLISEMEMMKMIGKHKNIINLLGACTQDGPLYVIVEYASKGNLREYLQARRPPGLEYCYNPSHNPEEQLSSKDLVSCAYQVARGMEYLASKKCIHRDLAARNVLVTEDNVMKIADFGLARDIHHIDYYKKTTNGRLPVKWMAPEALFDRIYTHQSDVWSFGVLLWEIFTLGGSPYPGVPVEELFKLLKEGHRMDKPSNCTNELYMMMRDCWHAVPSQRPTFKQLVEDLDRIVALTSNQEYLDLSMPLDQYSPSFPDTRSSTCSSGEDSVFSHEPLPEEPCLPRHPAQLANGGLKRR

PIM2 (human), sequence (Q9P1W9 whole entry, looked up): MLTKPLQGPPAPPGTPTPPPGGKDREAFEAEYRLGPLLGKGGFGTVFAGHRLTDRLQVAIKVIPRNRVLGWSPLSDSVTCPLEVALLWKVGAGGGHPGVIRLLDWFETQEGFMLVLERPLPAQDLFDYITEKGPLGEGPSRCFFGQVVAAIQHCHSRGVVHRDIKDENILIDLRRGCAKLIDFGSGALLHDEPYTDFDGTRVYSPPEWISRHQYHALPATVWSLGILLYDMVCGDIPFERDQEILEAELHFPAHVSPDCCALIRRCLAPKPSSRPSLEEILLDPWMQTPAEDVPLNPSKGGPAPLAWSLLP

residual activity (MST4 (human); compound 0.1 µM): 50% | residual activity (MST4 (human); compound 1.0 µM): 50% | residual activity (MST4 (human); compound 10.0 µM): 17% | residual activity (PIM2 (human); compound 0.1 µM): 94% | residual activity (PIM2 (human); compound 1.0 µM): 92% | residual activity (PIM2 (human); compound 10.0 µM): 77% | residual activity (PIM3 (human); compound 0.1 µM): 53% | residual activity (PIM3 (human); compound 1.0 µM): 72% | residual activity (PIM3 (human); compound 10.0 µM): 21% | residual activity (MAP2K6 (human); compound 0.1 µM): 94% | residual activity (MAP2K6 (human); compound 1.0 µM): 95% | residual activity (BRSK1 (human); compound 0.1 µM): 82% | residual activity (BRSK1 (human); compound 1.0 µM): 81% | residual activity (BRSK1 (human); compound 10.0 µM): 41% | residual activity (PRKACA (human); compound 0.1 µM): 98% | residual activity (PRKACA (human); compound 1.0 µM): 88% | residual activity (PRKACA (human); compound 10.0 µM): 54% | residual activity ([1]; compound 0.1 µM): 44% | residual activity ([1]; compound 1.0 µM): 44% | residual activity ([1]; compound 10.0 µM): 16% | residual activity (RPS6KA3 KD1 KD2 (human); compound 0.1 µM): 67% | residual activity (RPS6KA3 KD1 KD2 (human); compound 1.0 µM): 64% | residual activity (RPS6KA3 KD1 KD2 (human); compound 10.0 µM): 18% | residual activity (MAP2K2 (human); compound 0.1 µM): 86% | residual activity (MAP2K2 (human); compound 1.0 µM): 77% | residual activity (MELK (human); compound 0.1 µM): 42% | residual activity (MELK (human); compound 1.0 µM): 15% | residual activity (MELK (human); compound 10.0 µM): 5% | residual activity (EEF2K (human); compound 0.1 µM): 113% | residual activity (EEF2K (human); compound 1.0 µM): 96% | residual activity (EEF2K (human); compound 10.0 µM): 92% | residual activity (CHEK1 (human); compound 0.1 µM): 54% | residual activity (CHEK1 (human); compound 1.0 µM): 53% | residual activity (CHEK1 (human); compound 10.0 µM): 52% | residual activity (FLT1 (human); compound 0.1 µM): 56% | residual activity (FLT1 (human); compound 1.0 µM): 52% | residual activity (FLT1 (human); compound 10.0 µM): 19% | residual activity (MAPKAPK5 (human); compound 0.1 µM): 96% | residual activity (MAPKAPK5 (human); compound 1.0 µM): 94% | residual activity (MAPKAPK5 (human); compound 10.0 µM): 96% | residual activity (MAPKAPK3 (human); compound 0.1 µM): 91% | residual activity (MAPKAPK3 (human); compound 1.0 µM): 77% | residual activity (MAPKAPK3 (human); compound 10.0 µM): 85% | residual activity (SRPK1 (human); compound 0.1 µM): 71% | residual activity (SRPK1 (human); compound 1.0 µM): 59% | residual activity (SRPK1 (human); compound 10.0 µM): 11% | residual activity (INSRR (human); compound 0.1 µM): 69% | residual activity (INSRR (human); compound 1.0 µM): 80% | residual activity (INSRR (human); compound 10.0 µM): 52% | residual activity (MINK1 (human); compound 0.1 µM): 69% | residual activity (MINK1 (human); compound 1.0 µM): 64% | residual activity (MINK1 (human); compound 10.0 µM): 8% | residual activity (MAPK12 (human); compound 0.1 µM): 77% | residual activity (MAPK12 (human); compound 1.0 µM): 80% | residual activity (MAPK12 (human); compound 10.0 µM): 45% | residual activity (AURKA (human); compound 0.1 µM): 3% | residual activity (AURKA (human); compound 1.0 µM): 3% | residual activity (AURKA (human); compound 10.0 µM): 0% | residual activity (MAPK10 (human); compound 0.1 µM): 94% | residual activity (MAPK10 (human); compound 1.0 µM): 107% | residual activity (MAPK10 (human); compound 10.0 µM): 54% | residual activity (CSNK2A1 (human); compound 0.1 µM): 119% | residual activity (CSNK2A1 (human); compound 1.0 µM): 104% | residual activity (CSNK2A1 (human); compound 10.0 µM): 85% | residual activity (ERBB4 (human); compound 0.1 µM): 69% | residual activity (ERBB4 (human); compound 1.0 µM): 64% | residual activity (ERBB4 (human); compound 10.0 µM): 51% | residual activity (CDK2 CCNA2 (human); compound 0.1 µM): 35% | residual activity (CDK2 CCNA2 (human); compound 1.0 µM): 15% | residual activity (CDK2 CCNA2 (human); compound 10.0 µM): 3% | residual activity (AURKB (human); compound 0.1 µM): 65% | residual activity (AURKB (human); compound 1.0 µM): 42% | residual activity (AURKB (human); compound 10.0 µM): 7% | residual activity (GCK (human); compound 0.1 µM): 101% | residual activity (GCK (human); compound 1.0 µM): 93% | residual activity (GCK (human); compound 10.0 µM): 33% | residual activity ([2]; compound 0.1 µM): 89% | residual activity ([2]; compound 1.0 µM): 90% | residual activity ([2]; compound 10.0 µM): 41% | residual activity (EPHA2 (human); compound 0.1 µM): 46% | residual activity (EPHA2 (human); compound 1.0 µM): 36% | residual activity (EPHA2 (human); compound 10.0 µM): 13% | residual activity (RIPK2 (human); compound 0.1 µM): 20% | residual activity (RIPK2 (human); compound 1.0 µM): 17% | residual activity (RIPK2 (human); compound 10.0 µM): 8% | residual activity (PRKCA (human); compound 0.1 µM): 41% | residual activity (PRKCA (human); compound 1.0 µM): 45% | residual activity (PRKCA (human); compound 10.0 µM): 11% | residual activity (PHKG1 (human); compound 0.1 µM): 43% | residual activity (PHKG1 (human); compound 1.0 µM): 15% | residual activity (PHKG1 (human); compound 10.0 µM): 2% | residual activity (TAOK1 (human); compound 0.1 µM): 42% | residual activity (TAOK1 (human); compound 1.0 µM): 33% | residual activity (BTK (human); compound 0.1 µM): 96% | residual activity (BTK (human); compound 1.0 µM): 53% | residual activity (BTK (human); compound 10.0 µM): 8% | residual activity (DYRK2 (human); compound 0.1 µM): 101% | residual activity (DYRK2 (human); compound 1.0 µM): 87% | residual activity (DYRK2 (human); compound 10.0 µM): 80% | residual activity (FGFR1 (human); compound 0.1 µM): 47% | residual activity (FGFR1 (human); compound 1.0 µM): 43% | residual activity (FGFR1 (human); compound 10.0 µM): 11%
Structure (SMILES): Cc1ccc(Sc2cnc(Nc3cccc(Br)n3)s2)cc1C(=O)N1CCN(C(=O)CN)CC1
residual activity (MAPK15 (human); compound 0.1 µM): 1% | residual activity (MAPK15 (human); compound 1.0 µM): 1% | residual activity (MAPK15 (human); compound 10.0 µM): 1%
